± gives the uncertainty stated by the source.
Experiment: xn = mol fraction of the nth substance listed

CCCCCC[n+]1ccccc1.O=[N+]([O-])[O-] + CC#N
viscosity (298.15 K, 101 kPa, x1 = 0.004149): 0.5468 ± 0.0057 mPa·s
viscosity (298.15 K, 101 kPa, x1 = 0.008252): 0.6095 ± 0.006 mPa·s
viscosity (298.15 K, 101 kPa, x1 = 0.0124): 0.6478 ± 0.0063 mPa·s
viscosity (298.15 K, 101 kPa, x1 = 0.01616): 0.6731 ± 0.0064 mPa·s
viscosity (298.15 K, 101 kPa, x1 = 0.02021): 0.6913 ± 0.0066 mPa·s
viscosity (298.15 K, 101 kPa, x1 = 0.02422): 0.7042 ± 0.0067 mPa·s
viscosity (298.15 K, 101 kPa, x1 = 0.02814): 0.7132 ± 0.0068 mPa·s
viscosity (298.15 K, 101 kPa, x1 = 0.032): 0.7169 ± 0.0068 mPa·s
viscosity (298.15 K, 101 kPa, x1 = 0.03564): 0.7185 ± 0.0069 mPa·s
viscosity (298.15 K, 101 kPa, x1 = 0.03937): 0.7176 ± 0.0069 mPa·s

CCCC[P+](CCCC)(CCCC)CCCC.F[B-](F)(F)F + CC#N
viscosity (293.15 K, 100 kPa, x1 = 0.004186): 0.373 ± 0.023 mPa·s
viscosity (293.15 K, 100 kPa, x1 = 0.0082): 0.395 ± 0.024 mPa·s
viscosity (293.15 K, 100 kPa, x1 = 0.01203): 0.415 ± 0.025 mPa·s
viscosity (293.15 K, 100 kPa, x1 = 0.01623): 0.439 ± 0.027 mPa·s
viscosity (293.15 K, 100 kPa, x1 = 0.01997): 0.462 ± 0.028 mPa·s
viscosity (293.15 K, 100 kPa, x1 = 0.02402): 0.489 ± 0.03 mPa·s
viscosity (293.15 K, 100 kPa, x1 = 0.02784): 0.514 ± 0.031 mPa·s
viscosity (293.15 K, 100 kPa, x1 = 0.03177): 0.539 ± 0.033 mPa·s
viscosity (293.15 K, 100 kPa, x1 = 0.03555): 0.565 ± 0.034 mPa·s
viscosity (293.15 K, 100 kPa, x1 = 0.03928): 0.597 ± 0.036 mPa·s
viscosity (298.15 K, 100 kPa, x1 = 0.0005293): 0.347 ± 0.007 mPa·s
viscosity (298.15 K, 100 kPa, x1 = 0.0007957): 0.35 ± 0.007 mPa·s
viscosity (298.15 K, 100 kPa, x1 = 0.001066): 0.353 ± 0.007 mPa·s
viscosity (298.15 K, 100 kPa, x1 = 0.001332): 0.356 ± 0.007 mPa·s
viscosity (298.15 K, 100 kPa, x1 = 0.001602): 0.36 ± 0.007 mPa·s
viscosity (298.15 K, 100 kPa, x1 = 0.001872): 0.363 ± 0.007 mPa·s
viscosity (298.15 K, 100 kPa, x1 = 0.004186): 0.356 ± 0.022 mPa·s
viscosity (298.15 K, 100 kPa, x1 = 0.0082): 0.376 ± 0.023 mPa·s
viscosity (298.15 K, 100 kPa, x1 = 0.01203): 0.395 ± 0.024 mPa·s
viscosity (298.15 K, 100 kPa, x1 = 0.01623): 0.417 ± 0.025 mPa·s
viscosity (298.15 K, 100 kPa, x1 = 0.01997): 0.439 ± 0.027 mPa·s
viscosity (298.15 K, 100 kPa, x1 = 0.02402): 0.463 ± 0.028 mPa·s
viscosity (298.15 K, 100 kPa, x1 = 0.02784): 0.485 ± 0.029 mPa·s
viscosity (298.15 K, 100 kPa, x1 = 0.03177): 0.512 ± 0.031 mPa·s
viscosity (298.15 K, 100 kPa, x1 = 0.03555): 0.533 ± 0.032 mPa·s
viscosity (298.15 K, 100 kPa, x1 = 0.03928): 0.565 ± 0.034 mPa·s
viscosity (303.15 K, 100 kPa, x1 = 0.004186): 0.341 ± 0.021 mPa·s
viscosity (303.15 K, 100 kPa, x1 = 0.0082): 0.359 ± 0.022 mPa·s
viscosity (303.15 K, 100 kPa, x1 = 0.01203): 0.376 ± 0.023 mPa·s
viscosity (303.15 K, 100 kPa, x1 = 0.01623): 0.398 ± 0.024 mPa·s
viscosity (303.15 K, 100 kPa, x1 = 0.01997): 0.417 ± 0.025 mPa·s
viscosity (303.15 K, 100 kPa, x1 = 0.02402): 0.441 ± 0.027 mPa·s
viscosity (303.15 K, 100 kPa, x1 = 0.02784): 0.459 ± 0.028 mPa·s
viscosity (303.15 K, 100 kPa, x1 = 0.03177): 0.484 ± 0.029 mPa·s
viscosity (303.15 K, 100 kPa, x1 = 0.03555): 0.505 ± 0.031 mPa·s
viscosity (303.15 K, 100 kPa, x1 = 0.03928): 0.533 ± 0.032 mPa·s
viscosity (308.15 K, 100 kPa, x1 = 0.004186): 0.326 ± 0.02 mPa·s
viscosity (308.15 K, 100 kPa, x1 = 0.0082): 0.343 ± 0.021 mPa·s
viscosity (308.15 K, 100 kPa, x1 = 0.01203): 0.359 ± 0.022 mPa·s
viscosity (308.15 K, 100 kPa, x1 = 0.01623): 0.378 ± 0.023 mPa·s
viscosity (308.15 K, 100 kPa, x1 = 0.01997): 0.397 ± 0.024 mPa·s
viscosity (308.15 K, 100 kPa, x1 = 0.02402): 0.417 ± 0.025 mPa·s
viscosity (308.15 K, 100 kPa, x1 = 0.02784): 0.438 ± 0.027 mPa·s
viscosity (308.15 K, 100 kPa, x1 = 0.03177): 0.459 ± 0.028 mPa·s
viscosity (308.15 K, 100 kPa, x1 = 0.03555): 0.479 ± 0.029 mPa·s
viscosity (308.15 K, 100 kPa, x1 = 0.03928): 0.505 ± 0.031 mPa·s
viscosity (313.15 K, 100 kPa, x1 = 0.004186): 0.313 ± 0.019 mPa·s
viscosity (313.15 K, 100 kPa, x1 = 0.0082): 0.329 ± 0.02 mPa·s
viscosity (313.15 K, 100 kPa, x1 = 0.01203): 0.344 ± 0.021 mPa·s
viscosity (313.15 K, 100 kPa, x1 = 0.01623): 0.362 ± 0.022 mPa·s
viscosity (313.15 K, 100 kPa, x1 = 0.01997): 0.379 ± 0.023 mPa·s
viscosity (313.15 K, 100 kPa, x1 = 0.02402): 0.399 ± 0.024 mPa·s
viscosity (313.15 K, 100 kPa, x1 = 0.02784): 0.417 ± 0.025 mPa·s
viscosity (313.15 K, 100 kPa, x1 = 0.03177): 0.437 ± 0.026 mPa·s
viscosity (313.15 K, 100 kPa, x1 = 0.03555): 0.456 ± 0.028 mPa·s
viscosity (313.15 K, 100 kPa, x1 = 0.03928): 0.48 ± 0.029 mPa·s
viscosity (318.15 K, 100 kPa, x1 = 0.004186): 0.3 ± 0.018 mPa·s
viscosity (318.15 K, 100 kPa, x1 = 0.0082): 0.315 ± 0.019 mPa·s
viscosity (318.15 K, 100 kPa, x1 = 0.01203): 0.329 ± 0.02 mPa·s
viscosity (318.15 K, 100 kPa, x1 = 0.01623): 0.346 ± 0.021 mPa·s
viscosity (318.15 K, 100 kPa, x1 = 0.01997): 0.362 ± 0.022 mPa·s
viscosity (318.15 K, 100 kPa, x1 = 0.02402): 0.38 ± 0.023 mPa·s
viscosity (318.15 K, 100 kPa, x1 = 0.02784): 0.398 ± 0.024 mPa·s
viscosity (318.15 K, 100 kPa, x1 = 0.03177): 0.416 ± 0.025 mPa·s
viscosity (318.15 K, 100 kPa, x1 = 0.03555): 0.434 ± 0.026 mPa·s
viscosity (318.15 K, 100 kPa, x1 = 0.03928): 0.456 ± 0.028 mPa·s

— the CheMixHub ionic liquid set
